The source of these data is the supplement of paper PMC10307832.

Assay in all cases: relative viability (nuclei count vs DMSO), 5 days (fraction); higher = more cells survive
Compound in the experiment “Erlotinib + Trametinib”: C#Cc1cccc(Nc2ncnc3cc(OCCOC)c(OCCOC)cc23)c1 [Erlotinib] + CC(=O)Nc1cccc(-n2c(=O)n(C3CC3)c(=O)c3c(Nc4ccc(I)cc4F)n(C)c(=O)c(C)c32)c1 [Trametinib] (partner 0.02 µM)
The essentials: (§1)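 Lung cancer cell lines, seeded in 1536-well plates, were treated the following day by pin tool with a single drug or with five library-drug doses (not always all listed) in √10 steps on top of a fixed anchor-drug dose. Cells were fixed and nuclei stained in one step after 5 days, and nuclei were counted. Relative viability is the nuclei count for treated wells divided by that for vehicle wells, reported as medians of duplicate plates.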

Compound in the experiment “Erlotinib + Lapatinib”: C#Cc1cccc(Nc2ncnc3cc(OCCOC)c(OCCOC)cc23)c1 [Erlotinib] + CS(=O)(=O)CCNCc1ccc(-c2ccc3ncnc(Nc4ccc(OCc5cccc(F)c5)c(Cl)c4)c3c2)o1 [Lapatinib] (partner 2 µM)
The essentials: as §1

Compound in the experiment “AT9283 + Trametinib”: O=C(Nc1c[nH]nc1-c1nc2ccc(CN3CCOCC3)cc2[nH]1)NC1CC1 [AT9283] + CC(=O)Nc1cccc(-n2c(=O)n(C3CC3)c(=O)c3c(Nc4ccc(I)cc4F)n(C)c(=O)c(C)c32)c1 [Trametinib] (partner 0.02 µM)
The essentials: as §1

Compound in the experiment “AT9283 + Palbociclib”: O=C(Nc1c[nH]nc1-c1nc2ccc(CN3CCOCC3)cc2[nH]1)NC1CC1 [AT9283] + CC(=O)c1c(C)c2cnc(Nc3ccc(N4CCNCC4)cn3)nc2n(C2CCCC2)c1=O [Palbociclib] (partner 0.5 µM)
The essentials: as §1

Compound in the experiment “AT9283 + Dasatinib”: O=C(Nc1c[nH]nc1-c1nc2ccc(CN3CCOCC3)cc2[nH]1)NC1CC1 [AT9283] + Cc1nc(Nc2ncc(C(=O)Nc3c(C)cccc3Cl)s2)cc(N2CCN(CCO)CC2)n1 [Dasatinib] (partner 0.075 µM)
The method, boiled down:
as §1

As for NCI-H358, the relative viability was found to be 0.143 with Erlotinib + Trametinib (first compound 0.02 µM); 0.114 with Erlotinib + Trametinib (first compound 0.2 µM); 0.12 with Erlotinib + Trametinib (first compound 0.6325 µM); 0.105 in the experiment with Erlotinib + Trametinib (first compound 2 µM); 0.379 in the experiment with Erlotinib + Lapatinib (first compound 0.02 µM); 0.421 in the experiment with Erlotinib + Lapatinib (first compound 0.2 µM). Further, the relative viability with Erlotinib + Lapatinib (first compound 0.6325 µM) amounted to 0.519; with Erlotinib + Lapatinib (first compound 2 µM), 0.452; with AT9283 + Trametinib (first compound 0.003 µM) it was 0.144; with AT9283 + Trametinib (first compound 0.03 µM), 0.105; in the experiment with AT9283 + Trametinib (first compound 0.09487 µM), 0.081; in the experiment with AT9283 + Trametinib (first compound 0.3 µM), 0.0743. Also, the relative viability with AT9283 + Palbociclib (first compound 0.003 µM) was 0.191; with AT9283 + Palbociclib (first compound 0.03 µM) it was 0.0774; with AT9283 + Palbociclib (first compound 0.09487 µM), 0.0806; in the experiment with AT9283 + Palbociclib (first compound 0.3 µM), 0.0739; with AT9283 + Dasatinib (first compound 0.003 µM), 0.147; in the experiment with AT9283 + Dasatinib (first compound 0.03 µM), 0.1. Moreover, the relative viability with AT9283 + Dasatinib (first compound 0.09487 µM) amounted to 0.0732; in the experiment with AT9283 + Dasatinib (first compound 0.3 µM) it was 0.0691.
As for NCI-H2170, the relative viability amounted to 0.884 in the experiment with Erlotinib + Trametinib (first compound 0.02 µM); 0.924 with Erlotinib + Trametinib (first compound 0.2 µM); 0.977 with Erlotinib + Trametinib (first compound 0.6325 µM); 0.773 with Erlotinib + Trametinib (first compound 2 µM); 0.283 with Erlotinib + Lapatinib (first compound 0.02 µM); 0.264 in the experiment with Erlotinib + Lapatinib (first compound 0.2 µM). In addition, the relative viability in the experiment with Erlotinib + Lapatinib (first compound 0.6325 µM) came out at 0.293; in the experiment with Erlotinib + Lapatinib (first compound 2 µM), 0.24; in the experiment with AT9283 + Trametinib (first compound 0.003 µM), 0.958; with AT9283 + Trametinib (first compound 0.03 µM), 0.747; with AT9283 + Trametinib (first compound 0.09487 µM), 0.268; with AT9283 + Trametinib (first compound 0.3 µM), 0.159. Also, the relative viability with AT9283 + Palbociclib (first compound 0.003 µM) is 0.446; with AT9283 + Palbociclib (first compound 0.03 µM), 0.37; in the experiment with AT9283 + Palbociclib (first compound 0.09487 µM) it was 0.198; with AT9283 + Palbociclib (first compound 0.3 µM) it was 0.148; with AT9283 + Dasatinib (first compound 0.003 µM) it was 0.446; with AT9283 + Dasatinib (first compound 0.03 µM), 0.427. Further, the relative viability is 0.16 with AT9283 + Dasatinib (first compound 0.09487 µM) and 0.133 with AT9283 + Dasatinib (first compound 0.3 µM).
For the cell line 201T, the relative viability amounted to 0.709 with Erlotinib + Trametinib (first compound 0.02 µM); 0.675 in the experiment with Erlotinib + Trametinib (first compound 0.2 µM); 0.694 in the experiment with Erlotinib + Trametinib (first compound 0.6325 µM); 0.636 in the experiment with Erlotinib + Trametinib (first compound 2 µM); 1.01 with Erlotinib + Lapatinib (first compound 0.02 µM); 1.03 with Erlotinib + Lapatinib (first compound 0.2 µM). In addition, the relative viability with Erlotinib + Lapatinib (first compound 0.6325 µM) amounted to 1.08; in the experiment with Erlotinib + Lapatinib (first compound 2 µM), 0.934; with AT9283 + Trametinib (first compound 0.003 µM) it was 0.734; with AT9283 + Trametinib (first compound 0.03 µM), 0.753; with AT9283 + Trametinib (first compound 0.09487 µM) it was 0.388; with AT9283 + Trametinib (first compound 0.3 µM), 0.338. In addition, the relative viability amounted to 0.352 in the experiment with AT9283 + Palbociclib (first compound 0.003 µM); 0.362 with AT9283 + Palbociclib (first compound 0.03 µM); 0.265 with AT9283 + Palbociclib (first compound 0.09487 µM); 0.279 in the experiment with AT9283 + Palbociclib (first compound 0.3 µM); 0.456 with AT9283 + Dasatinib (first compound 0.003 µM); 0.592 in the experiment with AT9283 + Dasatinib (first compound 0.03 µM). In addition, the relative viability with AT9283 + Dasatinib (first compound 0.09487 µM) worked out at 0.323; with AT9283 + Dasatinib (first compound 0.3 µM), 0.292.
CAL-12T: the relative viability with Erlotinib + Trametinib (first compound 0.02 µM) amounted to 0.334; in the experiment with Erlotinib + Trametinib (first compound 0.2 µM), 0.279; with Erlotinib + Trametinib (first compound 0.6325 µM), 0.31; with Erlotinib + Trametinib (first compound 2 µM), 0.173; with Erlotinib + Lapatinib (first compound 0.02 µM), 0.815; with Erlotinib + Lapatinib (first compound 0.2 µM), 0.704. Moreover, the relative viability with Erlotinib + Lapatinib (first compound 0.6325 µM) worked out at 0.68; in the experiment with Erlotinib + Lapatinib (first compound 2 µM), 0.543; with AT9283 + Trametinib (first compound 0.003 µM), 0.421; in the experiment with AT9283 + Trametinib (first compound 0.03 µM), 0.399; with AT9283 + Trametinib (first compound 0.09487 µM), 0.211; with AT9283 + Trametinib (first compound 0.3 µM) it was 0.152. Moreover, the relative viability with AT9283 + Palbociclib (first compound 0.003 µM) turned out to be 0.543; with AT9283 + Palbociclib (first compound 0.03 µM) it was 0.257; with AT9283 + Palbociclib (first compound 0.09487 µM) it was 0.165; with AT9283 + Palbociclib (first compound 0.3 µM), 0.217; in the experiment with AT9283 + Dasatinib (first compound 0.003 µM), 0.495; in the experiment with AT9283 + Dasatinib (first compound 0.03 µM) it was 0.204. The relative viability in the experiment with AT9283 + Dasatinib (first compound 0.09487 µM) amounted to 0.124; in the experiment with AT9283 + Dasatinib (first compound 0.3 µM), 0.12.
Turning to NCI-H1792, the relative viability in the experiment with Erlotinib + Trametinib (first compound 0.02 µM) came to 0.435; in the experiment with Erlotinib + Trametinib (first compound 0.2 µM), 0.423; with Erlotinib + Trametinib (first compound 0.6325 µM) it was 0.47; with Erlotinib + Trametinib (first compound 2 µM) it was 0.446; with Erlotinib + Lapatinib (first compound 0.2 µM), 0.877; in the experiment with Erlotinib + Lapatinib (first compound 0.6325 µM) it was 1.18. For the same cell line, the relative viability with Erlotinib + Lapatinib (first compound 2 µM) turned out to be 0.842; in the experiment with AT9283 + Trametinib (first compound 0.003 µM) it was 0.315; in the experiment with AT9283 + Trametinib (first compound 0.03 µM), 0.376; with AT9283 + Trametinib (first compound 0.09487 µM), 0.509; in the experiment with AT9283 + Trametinib (first compound 0.3 µM), 0.258; in the experiment with AT9283 + Palbociclib (first compound 0.003 µM), 0.607. For the same cell line, the relative viability in the experiment with AT9283 + Palbociclib (first compound 0.03 µM) worked out at 0.661; in the experiment with AT9283 + Palbociclib (first compound 0.09487 µM), 0.623; with AT9283 + Palbociclib (first compound 0.3 µM), 0.399; with AT9283 + Dasatinib (first compound 0.003 µM), 0.894; with AT9283 + Dasatinib (first compound 0.03 µM), 0.886; with AT9283 + Dasatinib (first compound 0.09487 µM) it was 0.748. In addition, the relative viability in the experiment with AT9283 + Dasatinib (first compound 0.3 µM) was 0.538.
On to NCI-H1651, for which the relative viability in the experiment with Erlotinib + Trametinib (first compound 0.02 µM) worked out at 0.881; in the experiment with Erlotinib + Trametinib (first compound 0.2 µM), 0.814; with Erlotinib + Trametinib (first compound 0.6325 µM), 0.877; with Erlotinib + Trametinib (first compound 2 µM), 0.84; in the experiment with Erlotinib + Lapatinib (first compound 0.02 µM) it was 0.906; with Erlotinib + Lapatinib (first compound 0.2 µM), 0.693. Besides, the relative viability in the experiment with Erlotinib + Lapatinib (first compound 0.6325 µM) turned out to be 1.02; in the experiment with Erlotinib + Lapatinib (first compound 2 µM) it was 0.768; with AT9283 + Trametinib (first compound 0.003 µM) it was 0.838; in the experiment with AT9283 + Trametinib (first compound 0.03 µM), 0.875; with AT9283 + Trametinib (first compound 0.09487 µM), 0.819; with AT9283 + Trametinib (first compound 0.3 µM), 0.39. Further, the relative viability was found to be 0.476 with AT9283 + Palbociclib (first compound 0.003 µM); 0.502 with AT9283 + Palbociclib (first compound 0.03 µM); 0.534 with AT9283 + Palbociclib (first compound 0.09487 µM); 0.237 with AT9283 + Palbociclib (first compound 0.3 µM); 0.442 with AT9283 + Dasatinib (first compound 0.003 µM); 0.368 with AT9283 + Dasatinib (first compound 0.03 µM). In addition, the relative viability with AT9283 + Dasatinib (first compound 0.09487 µM) was 0.319; in the experiment with AT9283 + Dasatinib (first compound 0.3 µM) it was 0.212.
Consider NCI-H1793, for which the relative viability stood at 0.472 with Erlotinib + Trametinib (first compound 0.02 µM); 0.411 in the experiment with Erlotinib + Trametinib (first compound 0.2 µM); 0.411 with Erlotinib + Trametinib (first compound 0.6325 µM); 0.334 in the experiment with Erlotinib + Trametinib (first compound 2 µM); 0.517 with Erlotinib + Lapatinib (first compound 0.2 µM); 0.916 with Erlotinib + Lapatinib (first compound 0.6325 µM). Further, the relative viability with Erlotinib + Lapatinib (first compound 2 µM) was 0.591; with AT9283 + Trametinib (first compound 0.003 µM) it was 0.389; with AT9283 + Trametinib (first compound 0.03 µM), 0.342; with AT9283 + Trametinib (first compound 0.09487 µM) it was 0.292; with AT9283 + Trametinib (first compound 0.3 µM) it was 0.259; with AT9283 + Palbociclib (first compound 0.003 µM), 0.275. Further, the relative viability in the experiment with AT9283 + Palbociclib (first compound 0.03 µM) came to 0.329; in the experiment with AT9283 + Palbociclib (first compound 0.09487 µM), 0.298; with AT9283 + Palbociclib (first compound 0.3 µM), 0.255; in the experiment with AT9283 + Dasatinib (first compound 0.003 µM), 0.405; with AT9283 + Dasatinib (first compound 0.03 µM), 0.39; in the experiment with AT9283 + Dasatinib (first compound 0.09487 µM), 0.256. In addition, in the experiment with AT9283 + Dasatinib (first compound 0.3 µM), the relative viability turned out to be 0.138.
